One molecule from ChEMBL document CHEMBL3526139, “Clinical pharmacokinetics, metabolism, and drug-drug interaction of carfilzomib” (Drug Metab Dispos, 2013) can be followed below.

For this data set, the target named is Cytochrome P450 2C9 (Homo sapiens, UniProt P11712). In words: Drug metabolism in pooled human hepatocytes assessed as disapperance rate at 1 uM by LC-MS/MS analysis in presence of 10 uM CYP2C9 inhibitor sulfaphenazole.
Sequence of Cytochrome P450 2C9 (P11712 whole entry, looked up): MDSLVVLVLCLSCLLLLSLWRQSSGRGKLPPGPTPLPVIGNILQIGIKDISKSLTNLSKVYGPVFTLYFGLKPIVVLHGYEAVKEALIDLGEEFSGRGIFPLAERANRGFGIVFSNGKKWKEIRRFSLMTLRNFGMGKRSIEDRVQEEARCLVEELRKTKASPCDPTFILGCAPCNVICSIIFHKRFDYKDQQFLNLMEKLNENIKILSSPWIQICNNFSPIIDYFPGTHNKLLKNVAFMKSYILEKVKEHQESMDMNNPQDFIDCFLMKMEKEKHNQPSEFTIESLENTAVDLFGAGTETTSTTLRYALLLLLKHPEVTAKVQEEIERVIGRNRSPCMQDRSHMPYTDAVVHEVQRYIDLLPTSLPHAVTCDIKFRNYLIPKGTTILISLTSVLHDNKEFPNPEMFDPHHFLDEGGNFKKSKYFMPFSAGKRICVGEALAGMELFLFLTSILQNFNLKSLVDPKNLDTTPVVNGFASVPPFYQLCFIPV

Regarding `CC(C)C[C@H](NC(=O)[C@H](CCc1ccccc1)NC(=O)CN1CCOCC1)C(=O)N[C@@H](Cc1ccccc1)C(=O)N[C@@H](CC(C)C)C(=O)[C@@]1(C)CO1` [CARFILZOMIB], the Drug metabolism is 0.0073 min⁻¹.
